Experimental data from ChEMBL document CHEMBL3885861, “Open TG-GATES”.

Organism: Rattus norvegicus
Assay: Open TG-GATES - Regimen: Daily Repeat
Assay type: toxicity, organism-based, Sprague-Dawley
Set-up: regimen Daily Repeat, gender Male, age 6 weeks
Conditions: in vivo, po, route gavage; for TP / gamma-GTP / ALP / ALT / AST / BUN / CRE / Ca / Cl / DBIL / GLC / IP / K / LDH / Na / PL / RALB / TBIL / TC / TG: tissue Plasma; for APTT / Bas / Eos / Fbg / Hb / Ht / Lym / MCH / MCV / Mono / Neu / PT / Plat / RBC / Ret / WBC / MCHC: tissue Blood; for KIDNEY_L / KIDNEY_R / KIDNEY_TOTAL: tissue Kidney; for LIVER: tissue Liver
[1] = 100 mg/kg, […], dose level Low, time 28 day
[2] = 300 mg/kg, 72 h, dose level Middle, time 3 day
[3] = 300 mg/kg, […], dose level Middle, time 7 day
[4] = 300 mg/kg, […], dose level Middle, time 14 day
[5] = 300 mg/kg, […], dose level Middle, time 28 day

CCOc1ccc(NC(C)=O)cc1 [PHENACETIN]
TP [1]: 6.4 g/dL
gamma-GTP [1]: 1 IU/L
TERMINAL_BW [2]: 224.3 g
APTT [2]: 21.5 s
Bas [2]: 0%
Eos [2]: 1.2%
Fbg [2]: 290.8 mg/dL
Hb [2]: 13.5 g/dL
Ht [2]: 40.7%
Lym [2]: 75.2%
MCH [2]: 19.9 pg
MCV [2]: 60.1 fL
Mono [2]: 3.4%
Neu [2]: 19.4%
PT [2]: 13.4 s
Plat [2]: 119.3 x10_4/uL
RBC [2]: 678.8 x10_4/ul
Ret [2]: 4.8%
WBC [2]: 98.2 x10_2/uL
KIDNEY_L [2]: 1 g
KIDNEY_R [2]: 1 g
KIDNEY_TOTAL [2]: 2 g
LIVER [2]: 11.1 g
ALP [2]: 1609.6 IU/L
ALT [2]: 39.2 IU/L
AST [2]: 66.2 IU/L
BUN [2]: 13 mg/dL
CRE [2]: 0.2 mg/dL
Ca [2]: 11.1 mg/dL
Cl [2]: 104.8 meq/L
DBIL [2]: 0.01 mg/dL
GLC [2]: 166 mg/dL
IP [2]: 6.9 mg/dL
K [2]: 4 meq/L
LDH [2]: 69.4 IU/L
Na [2]: 143.2 meq/L
PL [2]: 174.4 mg/dL
RALB [2]: 2.7 g/dL
TBIL [2]: 0.044 mg/dL
TC [2]: 80.4 mg/dL
TG [2]: 145.4 mg/dL
TP [2]: 5.7 g/dL
gamma-GTP [2]: 1 IU/L
TERMINAL_BW [3]: 262.8 g
TERMINAL_BW [4]: 306 g
TERMINAL_BW [5]: 397.8 g
APTT [3]: 17.4 s
Bas [3]: 0%
Eos [3]: 1%
Fbg [3]: 302.6 mg/dL
Hb [3]: 13.3 g/dL
Ht [3]: 40.1%
Lym [3]: 71.8%
MCH [3]: 20 pg
MCV [3]: 60.2 fL
Mono [3]: 2.8%
Neu [3]: 24.2%
PT [3]: 13.3 s
Plat [3]: 122.3 x10_4/uL
RBC [3]: 666.2 x10_4/ul
Ret [3]: 6.7%
WBC [3]: 103.2 x10_2/uL
Bas [4]: 0.2%
Eos [4]: 1%
Fbg [4]: 273.2 mg/dL
Lym [4]: 74.4%
MCH [4]: 19.9 pg
MCHC [4]: 33.5%
MCV [4]: 59.3 fL
Mono [4]: 2.2%
Neu [4]: 21.8%
PT [4]: 13.1 s
Plat [4]: 125.2 x10_4/uL
RBC [4]: 696.6 x10_4/ul
Ret [4]: 6.5%
WBC [4]: 128 x10_2/uL
APTT [5]: 21.1 s
Bas [5]: 0.2%
Eos [5]: 1.2%
Fbg [5]: 262.4 mg/dL
Hb [5]: 14.4 g/dL
Ht [5]: 42.5%
Lym [5]: 76.4%
MCH [5]: 19.1 pg
MCHC [5]: 33.8%
MCV [5]: 56.4 fL
Mono [5]: 1.8%
PT [5]: 13.7 s
Plat [5]: 103.8 x10_4/uL
RBC [5]: 754.2 x10_4/ul
Ret [5]: 4.9%
WBC [5]: 159.4 x10_2/uL
KIDNEY_L [3]: 1.2 g
KIDNEY_R [3]: 1.1 g
KIDNEY_TOTAL [3]: 2.3 g
KIDNEY_L [4]: 1.2 g
KIDNEY_R [4]: 1.2 g
KIDNEY_TOTAL [4]: 2.5 g
KIDNEY_L [5]: 1.4 g
KIDNEY_R [5]: 1.4 g
KIDNEY_TOTAL [5]: 2.9 g
LIVER [4]: 12.6 g
ALP [3]: 1712.6 IU/L
ALT [3]: 39.4 IU/L
AST [3]: 64.6 IU/L
CRE [3]: 0.2 mg/dL
Ca [3]: 11 mg/dL
Cl [3]: 104.2 meq/L
DBIL [3]: 0.008 mg/dL
GLC [3]: 177.8 mg/dL
IP [3]: 6.9 mg/dL
K [3]: 4.3 meq/L
LDH [3]: 79.4 IU/L
PL [3]: 174.4 mg/dL
RALB [3]: 2.7 g/dL
TBIL [3]: 0.048 mg/dL
TC [3]: 81.6 mg/dL
TG [3]: 149 mg/dL
TP [3]: 5.9 g/dL
gamma-GTP [3]: 1.4 IU/L
ALP [4]: 1577.4 IU/L
ALT [4]: 37.2 IU/L
AST [4]: 63 IU/L
BUN [4]: 14.2 mg/dL
CRE [4]: 0.2 mg/dL
Ca [4]: 10.7 mg/dL
DBIL [4]: 0.02 mg/dL
GLC [4]: 181.8 mg/dL
IP [4]: 6.3 mg/dL
K [4]: 4.3 meq/L
LDH [4]: 159.2 IU/L
Na [4]: 144.2 meq/L
PL [4]: 162.2 mg/dL
RALB [4]: 2.7 g/dL
TBIL [4]: 0.086 mg/dL
TC [4]: 78.4 mg/dL
TG [4]: 91.2 mg/dL
TP [4]: 5.9 g/dL
gamma-GTP [4]: 1 IU/L
ALP [5]: 1081 IU/L
ALT [5]: 40 IU/L
AST [5]: 63 IU/L
BUN [5]: 14.4 mg/dL
CRE [5]: 0.3 mg/dL
Cl [5]: 105.6 meq/L
DBIL [5]: 0.02 mg/dL
GLC [5]: 175.4 mg/dL
IP [5]: 5.9 mg/dL
K [5]: 4.1 meq/L
LDH [5]: 53.2 IU/L
Na [5]: 145 meq/L
PL [5]: 156.2 mg/dL
RALB [5]: 2.8 g/dL
TBIL [5]: 0.074 mg/dL
TC [5]: 70.2 mg/dL
TG [5]: 122.8 mg/dL
TP [5]: 6.2 g/dL
gamma-GTP [5]: 1 IU/L
